Assay [1] concerns the target T1, GDF-11 (Homo sapiens, UniProt O95390).
T1 construct: purchased R&D systems 1958-GD-G8/CF
T1 sequence (O95390 299-407): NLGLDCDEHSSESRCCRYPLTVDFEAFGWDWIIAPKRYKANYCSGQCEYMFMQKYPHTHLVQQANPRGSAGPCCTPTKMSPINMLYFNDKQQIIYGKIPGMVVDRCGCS
Kind of assay: HepG2 reporter gene assay, Evaluation Procedure (2): 2-concentrations assay, GDF-11 inhibition. Particulars: for inhibition at 0.03 µM: HepG2, peptide 30nM, read-out: GDF11 Inhibition 30nM; for inhibition at 0.03 µM / inhibition at 0.1 µM: GDF-11 10 ng/mL; for inhibition at 0.1 µM: HepG2, peptide 100nM, read-out: GDF11 Inhibition 100nM; for inhibition: read-out: inhibition rate (GDF-11 inhibition assay). The class given is cell-based. The method, boiled down:
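HepG2 cells carrying the transfected pGL3(CAGA)12-luc reporter, a pGL3 vector with luciferase placed downstream of 12 CAGA repeats, were stimulated with GDF-11 at a final 10 ng/mL together with test peptide. Blank wells received no GDF-11 and no peptide. Plates were incubated 20 to 24 hours at 37°C with 5% CO2. Luminescence from One-Glo substrate was read to calculate percent inhibition.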
For orientation: In a reporter assay the amount or activity of a reporter protein is the signal.

In assay [2] the target is T2, Myostatin (Homo sapiens, UniProt O14793).
T2 construct: active myostatin (also called mature myostatin) is a homodimer consisting of two C-terminal growth factor domains; purchased R&D systems 788-G8/CF
T2 sequence (O14793 267-375): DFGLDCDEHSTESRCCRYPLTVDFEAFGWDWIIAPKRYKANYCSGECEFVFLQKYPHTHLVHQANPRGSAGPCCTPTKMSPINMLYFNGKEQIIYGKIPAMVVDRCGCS
Kind of assay: HepG2 reporter gene assay, Evaluation Procedure (2): 2-concentrations assay, myostatin inhibition. The class given is cell-based. Particulars: HepG2. An outline of the steps: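 HepG2 cells (HB-8065, ATCC) carrying the transfected pGL3(CAGA)12-luc reporter plasmid were treated with myostatin (788-G8/CF, R&D systems) at a final concentration of 10 ng/mL plus peptide and incubated at 37°C, 5% CO2 for 20 to 24 hours. Luminescence was read after adding PBS mixed 1:1 with One-Glo substrate, and inhibition rate was calculated.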

The mark [3] stands for this setting: peptide 30nM, Myostatin 10 ng/mL, read-out: Myostatin Inhibition 30nM.
Setting [4] is: peptide 100nM, Myostatin 10 ng/mL, read-out: Myostatin Inhibition 100nM.

Like-named read-outs stand apart in the source and are kept apart here. Starred links: 1 amine or outer side, 2 acyl side, 3 side chain; linkers in the order of their positions; H or OH if unused. Positions of bridges follow the written chain, without caps; N, C: chain ends. Non-standard residues stand in square brackets, D forms with d. Residues, ends and D or L forms follow the SMILES beside them. Groups on a side chain read outwards from the residue. *: point of attachment. Phe(3-OCH2COOH) = N[C@@H](Cc1cccc(OCC(=O)O)c1)C(=O)O; X2 = CC(=O)N1CCC(C[C@@H](C(=O)[*:2])N(C)[*:1])CC1; Phe(4-COOH) = N[C@@H](Cc1ccc(C(=O)O)cc1)C(=O)O; Piperazinyl(4-CH2COOH) = O=C(O)CN1CCN(*)CC1; Gly(decyl) = CCCCCCCCCC[C@H](N)C(=O)O; Gly(N(CH2)3COOH) = O=C(O)CCCNCC(=O)O; X1 = CCCCCCC[C@H](N[*:1])C(=O)[*:2]; NMeF = CN[C@@H](Cc1ccccc1)C(=O)O; 4Pal = N[C@@H](Cc1ccncc1)C(=O)O; Cha = N[C@@H](CC1CCCCC1)C(=O)O; Gly(N(CH2)3NH2) = NCCCNCC(=O)O; Ahp(2) = CCCCC[C@H](N)C(=O)O; dNMeC = CN[C@H](CS)C(=O)O; NMeA = CN[C@@H](C)C(=O)O; Dap = NC[C@H](N)C(=O)O; CO = O=C([*:1])[*:2]; Sar = CNCC(=O)O

As usually defined, the inhibition is the share of the control response that was lost under treatment. Turning to `CCCCC[C@@H]1NC(=O)[C@H](Cc2ccccc2)N(C)C(=O)[C@H](CCCNC(=N)N)NC(=O)[C@H](Cc2ccc(C(=O)O)cc2)NC(=O)[C@H](Cc2cccc(OCC(=O)O)c2)NC(=O)CN(C)C(=O)[C@H]([C@@H](C)CC)NC(=O)[C@H](Cc2ccccc2)N(C)C(=O)[C@H](Cc2ccc(O)cc2)NC(=O)[C@H](Cc2c[nH]c3ccccc23)NC(=O)[C@H](C)NC(=O)[C@H](C)NC(=O)CSC[C@H](C(N)=O)NC(=O)[C@H](Cc2ccccc2)N(C)C(=O)[C@H](C)N(C)C1=O` [Myostatin_99_v206] ({CH2CO}-AAWY[NMeF]I[Sar][Phe(3-OCH2COOH)][Phe(4-COOH)]R[NMeF][Ahp(2)][NMeA][NMeF][dC]-NH2; thioether N-15), the results for the inhibition at 0.03 µM in assay [1] and in assay [2] (setting [3]) were 0% and 88%, respectively. Also, the inhibition at 0.1 µM in assay [1] was 0%; in assay [2] (setting [4]), 97%.
Regarding `CC[C@H](C)[C@@H]1NC(=O)[C@H](Cc2ccccc2)N(C)C(=O)[C@H](Cc2ccc(O)cc2)NC(=O)[C@H](Cc2c[nH]c3ccccc23)NC(=O)[C@H](C)NC(=O)CN(CCCC(=O)O)C(=O)CSC[C@H](C(N)=O)NC(=O)[C@H](Cc2ccccc2)N(C)C(=O)[C@H](C)N(C)C(=O)[C@H](CC(C)C)NC(=O)[C@H](Cc2ccccc2)N(C)C(=O)[C@H](CCCNC(=N)N)NC(=O)[C@H](Cc2ccc(C(=O)O)cc2)NC(=O)[C@H](Cc2ccncc2)NC(=O)CN(C)C1=O` [Myostatin_99_Variant_18] ({CH2CO}-[Gly(N(CH2)3COOH)]AWY[NMeF]I[Sar][4Pal][Phe(4-COOH)]R[NMeF]L[NMeA][NMeF][dC]-NH2; thioether N-15), the inhibition at 0.03 µM worked out at 0% in assay [1] and 56% in assay [2] (setting [3]). Moreover, the inhibition at 0.1 µM was 0% in assay [1] and 80% in assay [2] (setting [4]).
Turning to `CC[C@H](C)[C@@H]1NC(=O)[C@H](Cc2ccccc2)N(C)C(=O)[C@H](Cc2ccc(O)cc2)NC(=O)[C@H](Cc2c[nH]c3ccccc23)NC(=O)[C@H](C)NC(=O)CN(CCCC(=O)O)C(=O)CSC[C@H](C(=O)NCC(=O)N[C@H](CCC(=O)O)C(=O)NCC(=O)N[C@H](CCCCN)C(=O)O)NC(=O)[C@H](Cc2ccccc2)N(C)C(=O)[C@H](C)N(C)C(=O)[C@H](CC(C)C)NC(=O)[C@H](Cc2ccccc2)N(C)C(=O)[C@H](CCCNC(=N)N)NC(=O)[C@H](Cc2ccc(C(=O)O)cc2)NC(=O)[C@H](Cc2ccc(O)cc2)NC(=O)CN(C)C1=O` [Myostatin_99_v27] ({CH2CO}-[Gly(N(CH2)3COOH)]AWY[NMeF]I[Sar]Y[Phe(4-COOH)]R[NMeF]L[NMeA][NMeF][dC]G[dE]G[dK]-OH; thioether N-15), the inhibition at 0.03 µM in assay [1] amounted to 0%; in assay [2] (setting [3]), 24%. For the same compound, the inhibition at 0.1 µM in assay [1] was 0%; in assay [2] (setting [4]), 54%.
In the case of `CCCCCCCCCC[C@@H]1NC(=O)[C@H](CC2CCCCC2)NC(=O)[C@H](CCCNC(=N)N)NC(=O)[C@H](Cc2ccc(C(=O)O)cc2)NC(=O)[C@H](CCCCNC(=O)N2CCN(CC(=O)O)CC2)NC(=O)CN(C)C(=O)[C@H]([C@@H](C)CC)NC(=O)[C@H](Cc2ccccc2)N(C)C(=O)[C@H](Cc2ccc(O)cc2)NC(=O)[C@H](Cc2c[nH]c3ccccc23)NC(=O)[C@H](C)NC(=O)[C@H](CCCCNC(=O)N2CCN(CC(=O)O)CC2)NC(=O)CSC[C@H](C(=O)N2CCN(CC(=O)O)CC2)NC(=O)[C@H](Cc2ccccc2)N(C)C(=O)[C@H](C)N(C)C1=O` [Myostatin_99_v267] ({CH2CO}-K([CO-Piperazinyl(4-CH2COOH)])AWY[NMeF]I[Sar]K([CO-Piperazinyl(4-CH2COOH)])[Phe(4-COOH)]R[Cha][Gly(decyl)][NMeA][NMeF][dC]-{Piperazinyl(4-CH2COOH)}; thioether N-15), the results for the inhibition at 0.03 µM in assay [1] and in assay [2] (setting [3]) were 24% and 100%, respectively. Moreover, the inhibition at 0.1 µM in assay [1] was 64%; in assay [2] (setting [4]), 100%.
Consider `CC[C@H](C)[C@@H]1NC(=O)[C@H](Cc2ccccc2)N(C)C(=O)[C@H](Cc2ccc(O)cc2)NC(=O)[C@H](Cc2c[nH]c3ccccc23)NC(=O)[C@H](CN)NC(=O)[C@H](C)NC(=O)CSC[C@H](C(=O)N[C@@H](CN)C(=O)N[C@@H](CN)C(N)=O)NC(=O)[C@H](Cc2ccccc2)N(C)C(=O)[C@H](C)N(C)C(=O)[C@H](CC(C)C)NC(=O)[C@H](Cc2ccccc2)N(C)C(=O)[C@H](CCCNC(=N)N)NC(=O)[C@H](Cc2ccc(O)cc2)NC(=O)[C@H](Cc2ccc(O)cc2)NC(=O)CN(C)C1=O` [Myostatin_99_Variant_10] ({CH2CO}-A[Dap]WY[NMeF]I[Sar]YYR[NMeF]L[NMeA][NMeF][dC][Dap][Dap]-NH2; thioether N-15), for which the results for the inhibition at 0.03 µM in assay [1] and in assay [2] (setting [3]) were 11% and 60%, respectively. Besides, the values for the inhibition at 0.1 µM in assay [1] and in assay [2] (setting [4]) were 29% and 89%, respectively.
Take `CCCCCCC[C@@H]1NC(=O)[C@H](Cc2ccccc2)N(C)C(=O)[C@H](CCCNC(=N)N)NC(=O)[C@H](Cc2ccc(C(=O)O)cc2)NC(=O)[C@H](Cc2cccc(OCC(=O)O)c2)NC(=O)[C@H](C)N(C)C(=O)[C@H]([C@@H](C)CC)NC(=O)[C@H](Cc2ccccc2)N(C)C(=O)[C@H](Cc2ccc(O)cc2)NC(=O)[C@H](Cc2c[nH]c3ccccc23)NC(=O)[C@H](C)NC(=O)CN(CCCC(=O)O)C(=O)CSC[C@H](C(N)=O)N(C)C(=O)[C@H](Cc2ccccc2)N(C)C(=O)[C@H](C)N(C)C1=O` [Myostatin_99_v439] ({CH2CO}-[Gly(N(CH2)3COOH)]AWY[NMeF]I[NMeA][Phe(3-OCH2COOH)][Phe(4-COOH)]R[NMeF][X1][NMeA][NMeF][dNMeC]-NH2; thioether N-15): the inhibition in assay [1] (HepG2, first GDF-11 column of Table 7-3/7-4, GDF-11 10 ng/mL, peptide at the lower of the 2 concentrations) is 2%; in assay [1] (HepG2, second GDF-11 column of Table 7-3/7-4, GDF-11 10 ng/mL, peptide at the higher of the 2 concentrations) it was 36%. Moreover, in assay [2] (Table 7-3/7-4, myostatin 10 ng/mL, peptide at the higher of the 2 concentrations, read-out: inhibition rate (myostatin inhibition assay)), the inhibition at 0.1 µM was determined as 100%. Besides, the inhibition at 0.03 µM in assay [2] (Table 7-3/7-4, myostatin 10 ng/mL, peptide at the lower of the 2 concentrations, read-out: inhibition rate (myostatin inhibition assay)) came to 100%.
As for `CCCCCCC[C@@H]1NC(=O)[C@H](Cc2ccccc2)N(C)C(=O)[C@H](CCCNC(=N)N)NC(=O)[C@H](Cc2ccc(C(=O)O)cc2)NC(=O)[C@H](Cc2cccc(OCC(=O)O)c2)NC(=O)CN(C)C(=O)[C@H]([C@@H](C)CC)NC(=O)[C@H](CC2CCN(C(C)=O)CC2)N(C)C(=O)[C@H](Cc2ccc(O)cc2)NC(=O)[C@H](Cc2c[nH]c3ccccc23)NC(=O)[C@H](C)NC(=O)[C@H](C)NC(=O)CSC[C@H](C(=O)N2CCN(CC(=O)O)CC2)NC(=O)[C@H](Cc2ccccc2)N(C)C(=O)[C@H](C)N(C)C1=O` [Myostatin_99_v303] ({CH2CO}-AAWY[X2]I[Sar][Phe(3-OCH2COOH)][Phe(4-COOH)]R[NMeF][X1][NMeA][NMeF][dC]-{Piperazinyl(4-CH2COOH)}; thioether N-15), the values for the inhibition at 0.03 µM in assay [1] and in assay [2] (setting [3]) were 39% and 100%, respectively. Further, the inhibition at 0.1 µM turned out to be 67% in assay [1] and 100% in assay [2] (setting [4]).
`CC[C@H](C)[C@@H]1NC(=O)[C@H](Cc2ccccc2)N(C)C(=O)[C@H](Cc2ccc(O)cc2)NC(=O)[C@H](Cc2c[nH]c3ccccc23)NC(=O)[C@H](C)NC(=O)CN(CCCN)C(=O)CSC[C@H](C(=O)N[C@@H](CN)C(N)=O)NC(=O)[C@H](Cc2ccccc2)N(C)C(=O)[C@H](C)N(C)C(=O)[C@H](CC(C)C)NC(=O)[C@H](Cc2ccccc2)N(C)C(=O)[C@H](CCCNC(=N)N)NC(=O)[C@H](Cc2ccc(O)cc2)NC(=O)[C@H](Cc2ccc(O)cc2)NC(=O)CN(C)C1=O` [Myostatin_99_Variant_09] ({CH2CO}-[Gly(N(CH2)3NH2)]AWY[NMeF]I[Sar]YYR[NMeF]L[NMeA][NMeF][dC][Dap]-NH2; thioether N-15): the inhibition at 0.03 µM in assay [1] was 0%; in assay [2] (setting [3]), 65%. Moreover, the figures for the inhibition at 0.1 µM in assay [1] and in assay [2] (setting [4]) were 11% and 90%, respectively.
As to `CC[C@H](C)[C@@H]1NC(=O)[C@H](Cc2ccccc2)N(C)C(=O)[C@H](Cc2ccc(O)cc2)NC(=O)[C@H](Cc2c[nH]c3ccccc23)NC(=O)[C@H](C)NC(=O)CN(CCCC(=O)O)C(=O)CSC[C@H](C(=O)O)NC(=O)[C@H](Cc2ccccc2)N(C)C(=O)[C@H](C)N(C)C(=O)[C@H](CC(C)C)NC(=O)[C@H](Cc2ccccc2)N(C)C(=O)[C@H](CCCNC(=N)N)NC(=O)[C@H](Cc2ccc(O)cc2)NC(=O)[C@H](Cc2ccc(C(=O)O)cc2)NC(=O)CN(C)C1=O` [Myostatin_99_Variant_06] ({CH2CO}-[Gly(N(CH2)3COOH)]AWY[NMeF]I[Sar][Phe(4-COOH)]YR[NMeF]L[NMeA][NMeF][dC]-OH; thioether N-15), the inhibition at 0.03 µM in assay [1] is 0%; in assay [2] (setting [3]), 40%. Also, the figures for the inhibition at 0.1 µM in assay [1] and in assay [2] (setting [4]) were 0% and 65%, respectively.

These data come from patent publication EP4786487A1, “PEPTIDE” (Peptidream Inc, priority 2023, dated 2025).
